Molecular target: Human Factor D (Homo sapiens (Human), UniProt P00746)
Assay: Human Factor D Assay
Type: biochemical
Details: Human Factor D, Table 3; read-out: IC50
Procedure, shortened: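 IC50 values derive from nonlinear regression of Factor D reaction rates against compound concentration. The enzyme, purified from human serum, is used at 80 nM final with a 5 min room-temperature compound preincubation in 50 mM Tris, 1M NaCl, pH 7.5, before 100 μM Z-L-Lys-SBzl plus 100 μM DTNB are added.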

Human Factor D, sequence (P00746 26-253): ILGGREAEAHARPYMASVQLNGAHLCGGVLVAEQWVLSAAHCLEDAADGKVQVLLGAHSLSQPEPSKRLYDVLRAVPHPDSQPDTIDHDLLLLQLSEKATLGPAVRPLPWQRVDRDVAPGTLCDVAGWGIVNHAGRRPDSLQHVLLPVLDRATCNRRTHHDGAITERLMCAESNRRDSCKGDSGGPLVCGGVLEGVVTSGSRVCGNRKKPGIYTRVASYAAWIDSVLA

CC(=O)c1nn(CC(=O)N2C[C@H](F)C[C@H]2C(=O)Nc2cncc(Br)n2)c2ccc(-c3cnc4cc(C5CC5)nn4c3)cc12 [Compound 655, (2S,4R)-1-(2-(3-Acetyl-5-(2-cyclopropylpyrazolo[1,5-a]pyrimidin-6-yl)-1H-indazol-1-yl)acetyl)-N-(6-bromopyrazin-2-yl)-4-fluoropyrrolidine-2-carboxamide]
IC50: < 1000 nM

CC(=O)c1cn(CC(=O)N2C[C@H](F)C[C@H]2C(=O)Nc2cccc(OC(F)(F)F)n2)c2ccc(-c3cnc4cc(C)nn4c3)cc12 [Compound 656, (2S,4R)-1-(2-(3-Acetyl-5-(2-methylpyrazolo[1,5-a]pyrimidin-6-yl)-1H-indol-1-yl)acetyl)-4-fluoro-N-(6-(trifluoromethoxy)pyridin-2-yl)pyrrolidine-2-carboxamide]
IC50: < 1000 nM

CC(=O)c1cn(CC(=O)N2C[C@H](F)C[C@H]2C(=O)Nc2cc(C)cc(Br)n2)c2ccc(-c3cnc4cc(C)nn4c3)cc12 [Compound 657, (2S,4R)-1-(2-(3-Acetyl-5-(2-methylpyrazolo[1,5-a]pyrimidin-6-yl)-1H-indol-1-yl)acetyl)-N-(6-bromo-4-methylpyridin-2-yl)-4-fluoropyrrolidine-2-carboxamide]
IC50: < 1000 nM

CC(=O)c1nn(CC(=O)N2C[C@H](F)C[C@H]2C(=O)Nc2cccc(OC(F)F)n2)c2ccc(-c3cnc4cc(C)nn4c3)cc12 [Compound 658, (2S,4R)-1-(2-(3-Acetyl-5-(2-methylpyrazolo[1,5-a]pyrimidin-6-yl)-1H-indazol-1-yl)acetyl)-N-(6-(difluoromethoxy)pyridin-2-yl)-4-fluoropyrrolidine-2-carboxamide]
IC50: < 1000 nM

CC(=O)c1nn(CC(=O)N2[C@@H]3C[C@@H]3C[C@H]2C(=O)Nc2cncc(Br)n2)c2ccc(-c3ccc4nc(C)nn4c3)cc12 [Compound 659, (1R,3S,5R)-2-(2-(3-Acetyl-5-(2-methyl-[1,2,4]triazolo[1,5-a]pyridin-6-yl)-1H-indazol-1-yl)acetyl)-N-(6-bromopyrazin-2-yl)-2-azabicyclo[3.1.0]hexane-3-carboxamide]
IC50: < 1000 nM

CC(=O)c1nn(CC(=O)N2[C@@H]3C[C@@H]3C[C@H]2C(=O)Nc2cccc(Br)n2)c2ccc(-c3ccc4nc(C)nn4c3)cc12 [Compound 660, (1R,3S,5R)-2-(2-(3-Acetyl-5-(2-methyl-[1,2,4]triazolo[1,5-a]pyridin-6-yl)-1H-indazol-1-yl)acetyl)-N-(6-bromopyridin-2-yl)-2-azabicyclo[3.1.0]hexane-3-carboxamide]
IC50: < 1000 nM

CC(=O)c1nn(CC(=O)N2C[C@H](F)C[C@H]2C(=O)Nc2cnc(C)c(Br)n2)c2ccc(-c3cnc4cc(C)nn4c3)cc12 [Compound 662, (2S,4R)-1-(2-(3-Acetyl-5-(2-methylpyrazolo[1,5-a]pyrimidin-6-yl)-1H-indazol-1-yl)acetyl)-N-(6-bromo-5-methylpyrazin-2-yl)-4-fluoropyrrolidine-2-carboxamide]
IC50: < 1000 nM

CC(=O)c1nn(CC(=O)N2C[C@H](F)C[C@H]2C(=O)Nc2cnc(C)c(Br)n2)c2ccc(-c3ccc4nc(C)nn4c3)cc12 [Compound 663, (2S,4R)-1-(2-(3-Acetyl-5-(2-methyl-[1,2,4]triazolo[1,5-a]pyridin-6-yl)-1H-indazol-1-yl)acetyl)-N-(6-bromo-5-methylpyrazin-2-yl)-4-fluoropyrrolidine-2-carboxamide]
IC50: < 1000 nM

CC(=O)c1nn(CC(=O)N2[C@@H]3C[C@@H]3C[C@H]2C(=O)Nc2cncc(Br)n2)c2ccc(-c3cnc4ccnn4c3)cc12 [Compound 664, (1R,3S,5R)-2-(2-(3-Acetyl-5-(pyrazolo[1,5-a]pyrimidin-6-yl)-1H-indazol-1-yl)acetyl)-N-(6-bromopyrazin-2-yl)-2-azabicyclo[3.1.0]hexane-3-carboxamide]
IC50: < 1000 nM

CC(=O)c1nn(CC(=O)N2C[C@H](F)C[C@H]2C(=O)Nc2cnc(C)c(Br)n2)c2ccc(-c3cnc4ccnn4c3)cc12 [Compound 665, (2S,4R)-1-(2-(3-Acetyl-5-(pyrazolo[1,5-a]pyrimidin-6-yl)-1H-indazol-1-yl)acetyl)-N-(6-bromo-5-methylpyrazin-2-yl)-4-fluoropyrrolidine-2-carboxamide]
IC50: < 1000 nM

CC(=O)c1nn(CC(=O)N2[C@@H]3C[C@@H]3C[C@H]2C(=O)Nc2cnc(C)c(Br)n2)c2ccc(-c3cnc4cc(C)nn4c3)cc12 [Compound 666, (1R,3S,5R)-2-(2-(3-Acetyl-5-(2-methylpyrazolo[1,5-a]pyrimidin-6-yl)-1H-indazol-1-yl)acetyl)-N-(6-bromo-5-methylpyrazin-2-yl)-2-azabicyclo[3.1.0]hexane-3-carboxamide]
IC50: < 1000 nM

CC(=O)c1nn(CC(=O)N2[C@@H]3C[C@@H]3C[C@H]2C(=O)Nc2cnc(C)c(Br)n2)c2ccc(-c3cnc4ccnn4c3)cc12 [Compound 667, (1R,3S,5R)-2-(2-(3-Acetyl-5-(pyrazolo[1,5-a]pyrimidin-6-yl)-1H-indazol-1-yl)acetyl)-N-(6-bromo-5-methylpyrazin-2-yl)-2-azabicyclo[3.1.0]hexane-3-carboxamide]
IC50: < 1000 nM

CC(=O)c1nn(CC(=O)N2C[C@H](F)C[C@H]2C(=O)Nc2cccc(OC(F)(F)F)n2)c2ccc(-c3cnc4ccnn4c3)cc12 [Compound 668, (2S,4R)-1-(2-(3-Acetyl-5-(pyrazolo[1,5-a]pyrimidin-6-yl)-1H-indazol-1-yl)acetyl)-4-fluoro-N-(6-(trifluoromethoxy)pyridin-2-yl)pyrrolidine-2-carboxamide]
IC50: < 1000 nM

CC(=O)c1nn(CC(=O)N2[C@@H]3C[C@@H]3C[C@H]2C(=O)Nc2cncc(Br)n2)c2ccc(-c3cnc4cc(C5CC5)nn4c3)cc12 [Compound 669, (1R,3S,5R)-2-(2-(3-Acetyl-5-(2-cyclopropylpyrazolo[1,5-a]pyrimidin-6-yl)-1H-indazol-1-yl)acetyl)-N-(6-bromopyrazin-2-yl)-2-azabicyclo[3.1.0]hexane-3-carboxamide]
IC50: < 1000 nM

CC(=O)c1nn(CC(=O)N2[C@@H]3C[C@@H]3C[C@H]2C(=O)Nc2cccc(OC(F)(F)F)n2)c2ccc(-c3cnc4cc(C)nn4c3)cc12 [Compound 670, (1R,3S,5R)-2-(2-(3-Acetyl-5-(2-methylpyrazolo[1,5-a]pyrimidin-6-yl)-1H-indazol-1-yl)acetyl)-N-(6-(trifluoromethoxy)pyridin-2-yl)-2-azabicyclo[3.1.0]hexane-3-carboxamide]
IC50: < 1000 nM

CC(=O)c1nn(CC(=O)N2[C@@H]3C[C@@H]3C[C@H]2C(=O)Nc2cccc(OC(F)(F)F)n2)c2ccc(-c3cnc4ccnn4c3)cc12 [Compound 671, (1R,3S,5R)-2-(2-(3-Acetyl-5-(pyrazolo[1,5-a]pyrimidin-6-yl)-1H-indazol-1-yl)acetyl)-N-(6-(trifluoromethoxy)pyridin-2-yl)-2-azabicyclo[3.1.0]hexane-3-carboxamide]
IC50: < 1000 nM

CC(=O)c1nn(CC(=O)N2C[C@H](F)C[C@H]2C(=O)Nc2cccc(OC(F)(F)F)n2)c2ccc(-c3cnc4cc(C5CC5)nn4c3)cc12 [Compound 672, (2S,4R)-1-(2-(3-Acetyl-5-(2-cyclopropylpyrazolo[1,5-a]pyrimidin-6-yl)-1H-indazol-1-yl)acetyl)-4-fluoro-N-(6-(trifluoromethoxy)pyridin-2-yl)pyrrolidine-2-carboxamide]
IC50: < 1000 nM

CC(=O)c1nn(CC(=O)N2[C@@H]3C[C@@H]3C[C@H]2C(=O)Nc2cccc(Br)n2)c2ccc(-c3cnc4cc(C5CC5)nn4c3)cc12 [Compound 673, (1R,3S,5R)-2-(2-(3-Acetyl-5-(2-cyclopropylpyrazolo[1,5-a]pyrimidin-6-yl)-1H-indazol-1-yl)acetyl)-N-(6-bromopyridin-2-yl)-2-azabicyclo[3.1.0]hexane-3-carboxamide]
IC50: < 1000 nM

CC(=O)c1nn(CC(=O)N2C[C@H](F)C[C@H]2C(=O)Nc2cccc(Br)n2)c2ccc(-c3cnc4cc(C5CC5)nn4c3)cc12 [Compound 674, (2S,4R)-1-(2-(3-Acetyl-5-(2-cyclopropylpyrazolo[1,5-a]pyrimidin-6-yl)-1H-indazol-1-yl)acetyl)-N-(6-bromopyridin-2-yl)-4-fluoropyrrolidine-2-carboxamide]
IC50: < 1000 nM

CC(=O)c1nn(CC(=O)N2C[C@H](F)C[C@H]2C(=O)Nc2cnc(C)c(Br)n2)c2ccc(-c3cnc4cc(C5CC5)nn4c3)cc12 [Compound 675, (2S,4R)-1-(2-(3-Acetyl-5-(2-cyclopropylpyrazolo[1,5-a]pyrimidin-6-yl)-1H-indazol-1-yl)acetyl)-N-(6-bromo-5-methylpyrazin-2-yl)-4-fluoropyrrolidine-2-carboxamide]
IC50: < 1000 nM

CC(=O)c1nn(CC(=O)N2C[C@H](F)C[C@H]2C(=O)Nc2cc(Cl)cc(Br)n2)c2ccc(-c3cnc4cc(C)nn4c3)cc12 [Compound 676, (2S,4R)-1-(2-(3-acetyl-5-(2-methylpyrazolo[1,5-a]pyrimidin-6-yl)-1H-indazol-1-yl)acetyl)-N-(6-bromo-4-chloropyridin-2-yl)-4-fluoropyrrolidine-2-carboxamide]
IC50: < 1000 nM

CC(=O)c1nn(CC(=O)N2C[C@H](F)C[C@H]2C(=O)Nc2ccn(CC(F)(F)F)n2)c2ccc(-c3cnc4cc(C)nn4c3)cc12 [Compound 678, (2S,4R)-1-(2-(3-acetyl-5-(2-methylpyrazolo[1,5-a]pyrimidin-6-yl)-1H-indazol-1-yl)acetyl)-4-fluoro-N-(1-(2,2,2-trifluoroethyl)-1H-pyrazol-3-yl)pyrrolidine-2-carboxamide]
IC50: < 1000 nM

COC(=O)Cc1cccc(NC(=O)[C@@H]2C[C@@H](F)CN2C(=O)Cn2nc(C(C)=O)c3cc(-c4cnc5cc(C)nn5c4)ccc32)n1 [Compound 679, methyl 2-(6-((2S,4R)-1-(2-(3-acetyl-5-(2-methylpyrazolo[1,5-a]pyrimidin-6-yl)-1H-indazol-1-yl)acetyl)-4-fluoropyrrolidine-2-carboxamido)pyridin-2-yl)acetate]
IC50: < 1000 nM

CC(=O)c1nn(CC(=O)N2C[C@H](F)C[C@H]2C(=O)Nc2cccc(C(C)C)n2)c2ccc(-c3cnc4cc(C)nn4c3)cc12 [Compound 680, (2S,4R)-1-(2-(3-acetyl-5-(2-methylpyrazolo[1.5-a]pyrimidin-6-yl)-1H-indazol-1-yl)acetyl)-4-fluoro-N-(6-isopropylpyridin-2-yl)pyrrolidine-2-carboxamide]
IC50: < 1000 nM
